Converted amounts (≈) assume the structure as drawn. Like-named read-outs stand apart in the source and are kept apart here.
Columns and labels:
[1] = Thermodynamic aqueous solubility in USP phosphate buffer (Example 25); format: physicochemical; conditions: USP phosphate buffer pH 7.4, 24 h at 20° C., LC-MS/MS, read-out: Thermodynamic aq solubility
Protocol: The method described here was developed to accurately determine the aqueous solubility of compounds of the invention in buffer solution at a given pH.
Solid material (1 mg) of test compound is added to a glass vial followed by 1 ml of buffer solution (pH 7.4 if another pH not is stated). The solution is left on an orbital shaker for 24 h at 20° C. After incubation, the remaining solid material is separated from solution and the solubility is quantified using LC-MS/MS.
Prepare 0.2 M monobasic potassium phosphate solution by dissolving 27.22 g of KH2PO4 (MW=136.09 g/mol) in water, dilute with water to 1000 mL.
Add 250 mL of the monobasic potassium phosphate solution in a 1000 mL volumetric flask together with 195.5 mL 0.2M NaOH (aq). Add water to 1000 mL. Check pH.
Compounds of the invention/examples to be tested were provided as solid material, weighed into glass vials (2 mL). Each vial contains approximately 1 mg solid compound, two vials/compound are prepared, i.e. duplicate samples of each compound. If a freshly prepared 10 mM DMSO stock solution was available, this solution was used for MS optimization and preparation of standards. If a DMSO-stock solution was not available, a 10 mM solution from solid material 1 mg was prepared.
• Test compounds are employed as solid material. Since duplicate samples are prepared for each compound, each test compound arrives in two vials (1+1 mg). Samples are denoted as sample 1 and 2. • Note amount of substance in each vial. Add USP phosphate buffer pH 7.4 (1 mL) to each sample vial and seal vials using screw caps. Determine whether the solutions are saturated or if compounds are dissolved, note appearance and time. Start incubation; the samples are incubated on an orbital shaker (450 rpm) at 20° C. for 24 hours.
• Take out the 1 mM DMSO-stock solutions of compounds that are to be tested from freezer. If no 1 mM solutions are available, use master solutions with concentration of 10 mM. Allow the solutions to thaw at rt. • Collect two 96-deep well plates, glass inserts, sealing film, and an 8-channel expandable pipette with tall tips. • Abort shaking after 24 hour. • Note if samples are saturated or if compounds have dissolved. • Transfer 720 μL of sample slurry from each sample vial into glass inserts in a 96-deep well plate using an 8-channel expandable pipette. Samples 1 and 2 are transferred to separate plates. Thus, all samples 1 are placed in one plate and all samples 2 in the second plate. • Seal the plates using sealing film. • Centrifuge the plates at 3000 rpm for 15 min at rt. Set acceleration to 9 and brake to 7 (9=fastest acc/brake, 0=slowest acc/brake). • Transfer the supernatants to new glass inserts using an 8-channel pipette, centrifuge samples a second time. • Repeat the procedure above, i.e. centrifuge samples a third time. • After the third centrifugation, transfer supernatant to glass vials, seal vials with screw caps. Control that the solutions are clear and that no particles are present in sample. If solid material is observed, an additional centrifugation step is performed. • Standards are prepared from DMSO-stock solutions (1 or 10 mM). For each compound, transfer […] 1 mM solution to a glass vial, add DMSO (90 μL) to reach a final concentration of 100 μM, seal with screw cap and mix solution quickly on a vortex mixer. Further dilute the 100 μM solution with a 1:1 mixture of acetonitrile and USP phosphate buffer (pH 7.4) to standards with concentration 1000, 500, 100, 25, 2, and 1 nM. Standards are prepared in test tubes.
• Place standards in autosampler. • Try out the dilution of solubility samples so that their response will be within the standard curve. Dilute solubility sample one (or two) with the 1:1 mixture of acetonitrile:buffer. […]

LTC4 synthase = target: T1, LTC4 synthase (Homo sapiens, UniProt Q16873); experiment: Test 1 in vitro assay: LTC4 synthase converts LTA4 to LTC4, HTRF detection; format: biochemical; parameters: made in house; host or cells: Pichia pastoris; conditions: Test 1 (unless otherwise indicated)
T1 sequence (Q16873 1-150): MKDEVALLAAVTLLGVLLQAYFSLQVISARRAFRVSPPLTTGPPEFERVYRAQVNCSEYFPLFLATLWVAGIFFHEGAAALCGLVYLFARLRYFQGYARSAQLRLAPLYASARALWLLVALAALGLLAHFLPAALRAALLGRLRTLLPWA
Protocol: In the assay, LTC4 synthase catalyses the reaction where the substrate LTA4 is converted to LTC4. Recombinant human LTC4 synthase is expressed in Piccia pastoralis and the purified enzyme is dissolved in 25 mM tris-buffer pH 7.8 supplemented with 0.1 mM glutathione (GSH) and stored at −80° C. The assay is performed in phosphate buffered saline (PBS) pH 7.4 and 5 mM GSH in 384-well plates.
The following is added chronologically to each well:
1. 48 μL LTC4 synthase in PBS with 5 mM GSH. The total protein concentration in this solution is 0.5 μg/mL. 2. 1 μL inhibitor in DMSO (final concentration 10 μM). 3. Incubation of the plate at room temperature for 10 min. 4. 1 μL LTA4 (final concentration 2.5 μM). 5. Incubation of the plate at room temperature for 5 min. 6. 10 μL of the incubation mixture is analysed using homogenous time resolved fluorescent (HTRF) detection.
IC50 values for title compounds of the examples are depicted in the tables hereinafter (where, they are the values obtained using Test 1, unless otherwise indicated).

[2] = aqueous buffer, thermodynamic from solid

Row | Structure (SMILES) | solubility thermodynamic at 24 h [1, 2] | IC50 (LTC4 synthase; Table 2) | also measured
1 | COc1ccc(C(=O)c2ccc(C(=O)c3ccc(N(CC4CC4)c4ccc(Cl)cc4)cn3)cc2C(=O)O)cc1 [1:4, 5-{5-[(4-Chlorophenyl)(cyclopropylmethyl)amino]picolinoyl}-2-(4-methoxy-benzoyl)benzoic acid] | 2210 µM (≈ 1200 µg/mL) |  | 
2 | COc1ccc(C(=O)c2ccc(C(=O)c3ccc(N(CC4CC4)c4ccc(Cl)cc4F)cn3)cc2C(=O)O)cc1 [1:5, 5-{5-[(4-Chloro-2-fluorophenyl)(cyclopropylmethyl)amino]picolinoyl}-2-(4-methoxybenzoyl)benzoic acid] | 2480 µM (≈ 1380 µg/mL) |  | 
3 | CCCCCCC(=O)c1ccc(C(=O)c2ccc(N(C)c3ccc(Cl)cc3)cn2)cc1C(=O)O [1:17, 5-{5-[(4-Chlorophenyl)(methyl)amino]picolinoyl}-2-heptanoylbenzoic acid] | 153 µM (≈ 73.3 µg/mL) |  | 
4 | CN(c1ccc(Cl)cc1)c1ccc(C(=O)c2ccc(C(=O)C3(c4ccccc4)CC3)c(C(=O)O)c2)nc1 [1:19, 5-{5-[(4-Chlorophenyl)(methyl)amino]picolinoyl}-2-(1-phenylcyclopropyl-carbonyl)benzoic acid] | 680 µM (≈ 347 µg/mL) |  | 
5 | CN(c1ccc(Cl)cc1)c1ccc(C(=O)c2ccc(C(=O)c3ccccc3)c(C(=O)O)c2)nc1 [Example 1:1, 2-Benzoyl-5-{5-[(4-chlorophenyl)(methyl)amino]picolinoyl}benzoic acid] | 2580 µM (≈ 1210 µg/mL) |  | 
6 | CN(c1ccc(Cl)cc1)c1ccc(C(=O)c2ccc(C(=O)c3cccc(C(Cl)Cl)c3)c(C(=O)O)c2)nc1 [Example 2, 5-(5-((4-Chlorophenyl)(methyl)amino)picolinoyl)-2-(3-(dichloromethyl)benzoyl)-benzoic acid] |  |  | IC50 (LTC4 synthase): 34 nM
7 | CN(c1ccc(Cl)cc1)c1ccc(C(=O)c2ccc(C(=O)c3cccc(C=O)c3)c(C(=O)O)c2)nc1 [Example 3, 5-(5-((4-Chlorophenyl)(methyl)amino)picolinoyl)-2-(3-formylbenzoyl)benzoic acid] |  |  | IC50 (LTC4 synthase): 52 nM
8 | O=C(c1ccc(C(=O)c2ccc3c(c2)OCCO3)c(C(=O)O)c1)c1ccc(N(CC2CC2)c2ccc(Cl)cc2)cn1 [Example 4, 5-(5-((4-Chlorophenyl)(cyclopropylmethyl)amino)picolinoyl)-2-(2,3-dihydrobenzo-[b][1,4]dioxine-6-carbonyl)benzoic acid] |  |  | IC50 (LTC4 synthase): 21 nM
9 | O=C(c1ccc(Cl)cc1)c1ccc(C(=O)c2ccc(C(=O)c3ccccc3)c(C(=O)O)c2)nc1 [Example 5, 2-Benzoyl-5-(5-(4-chlorobenzoyl)picolinoyl)benzoic acid] |  |  | IC50 (LTC4 synthase): 1290 nM
10 | COc1cccc(C(=O)c2ccc(C(=O)c3ccc(Cc4ccc(Cl)cc4)cn3)cc2C(=O)O)c1 [Example 6, 5-(5-(4-Chlorobenzyl)picolinoyl)-2-(3-methoxybenzoyl)benzoic acid] | 1900 µM (≈ 924 µg/mL) |  | IC50 (LTC4 synthase): 155 nM
11 | CN(c1ccc(Cl)cc1)c1ccc(C(=O)c2ccc(C(=O)c3cccc(O)c3)c(C(=O)O)c2)nc1 [Example 7, 5-(5-((4-Chlorophenyl)(methyl)amino)picolinoyl)-2-(3-hydroxybenzoyl)benzoic acid] |  |  | IC50 (LTC4 synthase): 83 nM
12 | O=C(c1ccc(C(=O)C2(c3ccccc3)CC2)c(C(=O)O)c1)c1ccc(N(CC2CC2)c2ccc(Cl)cc2)cn1 [Example 8, 5-(5-((4-Chlorophenyl)(cyclopropylmethyl)amino)picolinoyl)-2-(1-phenylcyclopropanecarbonyl)benzoic acid] | 125 µM (≈ 68.9 µg/mL) | 41 nM | 
13 | CN(c1ccc(Cl)cc1)c1ccc(C(=O)c2ccc(C(=O)C3(c4ccccc4)CCCCC3)c(C(=O)O)c2)nc1 [Example 9, 5-(5-((4-Chlorophenyl)(methyl)amino)picolinoyl)-2-(1-phenylcyclohexanecarbonyl)benzoic acid] |  | 32 nM | solubility thermodynamic at 24 h [1]: 7 µM (≈ 3.87 µg/mL)
14 | COc1ccc(C2(C(=O)c3ccc(C(=O)c4ccc(N(C)c5ccc(Cl)cc5)cn4)cc3C(=O)O)CC2)cc1 [Example 10, 5-(5-((4-Chlorophenyl)(methyl)amino)picolinoyl)-2-(1-(4-methoxyphenyl)cyclopropanecarbonyl)benzoic acid] | 403 µM (≈ 218 µg/mL) | 22 nM | 
15 | CN(c1ccc(Cl)cc1)c1ccc(C(=O)c2ccc(C(=O)C3(c4ccccc4)CCCC3)c(C(=O)O)c2)nc1 [Example 11, 5-(5-((4-Chlorophenyl)(methyl)amino)picolinoyl)-2-(1-phenylcyclopentanecarbonyl)benzoic acid] |  | 76 nM | 
16 | CN(c1ccc(Cl)cc1)c1ccc(C(=O)c2ccc(C(=O)C34CC5CC(CC(C5)C3)C4)c(C(=O)O)c2)nc1 [Example 12, 2-(Adamantane-1-carbonyl)-5-(5-((4-chlorophenyl)(methyl)amino)picolinoyl)benzoic acid] | 15 µM (≈ 7.94 µg/mL) | 65 nM | 
17 | COc1cccc(C(=O)c2ccc(C(=O)c3ccc(N(CC4CC4)c4ccc(Cl)cc4)cn3)cc2C(=O)O)c1 [Example 13, 5-(5-((4-Chlorophenyl)(cyclopropylmethyl)amino)picolinoyl)-2-(3-methoxybenzoyl)benzoic acid] |  | 18 nM | 
18 | O=C(c1ccc(C(=O)c2cccc(O)c2)c(C(=O)O)c1)c1ccc(N(CC2CC2)c2ccc(Cl)cc2)cn1 [Example 14, 5-(5-((4-Chlorophenyl)(cyclopropylmethyl)amino)picolinoyl)-2-(3-hydroxybenzoyl)benzoic acid] | 1210 µM (≈ 637 µg/mL) | 30 nM | 
19 | CN(c1ccc(Cl)cc1)c1ccc(C(=O)c2ccc(C(=O)C(C)(C)c3ccccc3)c(C(=O)O)c2)nc1 [Example 16, 5-(5-((4-Chlorophenyl)(methyl)amino)picolinoyl)-2-(2-methyl-2-phenylpropanoyl)benzoic acid] |  | 55 nM | 
20 | CN(c1ccc(Cl)cc1)c1ccc(C(=O)c2ccc(C(=O)CC(C)(C)C)c(C(=O)O)c2)nc1 [Example 17, 5-(5-((4-Chlorophenyl)(methyl)amino)picolinoyl)-2-(3,3-dimethylbutanoyl)benzoic acid] |  | 235 nM | 
21 | CN(c1ccc(Cl)cc1)c1ccc(C(=O)c2ccc(C(=O)C3CC3c3ccccc3)c(C(=O)O)c2)nc1 (centres unmarked) [Example 19, 5-(5-((4-Chlorophenyl)(methyl)amino)picolinoyl)-2-(2-phenylcyclopropanecarbonyl)benzoic acid] |  | 141 nM | 
22 | CN(c1ccc(Cl)cc1)c1ccc(C(=O)c2ccc(C(=O)CC3CCCC3)c(C(=O)O)c2)nc1 [Example 20, 5-(5-((4-Chlorophenyl)(methyl)amino)picolinoyl)-2-(2-cyclopentylacetyl)benzoic acid] |  | 81 nM | 
23 | COc1cccc(CC(=O)c2ccc(C(=O)c3ccc(N(C)c4ccc(Cl)cc4)cn3)cc2C(=O)O)c1 [Example 21] |  | 192 nM | 
